Converted amounts (≈) assume the structure as drawn.
Columns and labels:
Assay in all cases: Minimum Inhibitory Concentration Assay (broth microdilution, CLSI)
Type in all cases: cell-based
E. coli 7623 = details: Escherichia coli; strain 7623, broth microdilution; read-out: E. coli 7623 MIC
Method in brief: (§1)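 CLSI broth microdilution for aerobic bacteria; compounds serially diluted in the recommended broth over a final range of 0.125–128 mcg/mL, final DMSO below 1%. MIC read as the lowest concentration inhibiting visible growth.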

P. aeruginosa PA01 = details: Pseudomonas aeruginosa; strain PA01, broth microdilution; read-out: P. aeruginosa PA01 MIC
Method in brief: as §1

K. pneumoniae 1161486 = details: Klebsiella pneumoniae; strain 1161486, broth microdilution; read-out: K. pneumoniae 1161486 MIC
Method in brief: as §1

Row | SMILES | MIC (E. coli 7623) [µg/mL] | MIC (P. aeruginosa PA01) [µg/mL] | MIC (K. pneumoniae 1161486) [µg/mL]
1 | CN(Cc1ccc(-c2ccc3c(=O)n(CC[C@](C)(C(=O)NO)S(C)(=O)=O)cnc3c2)cc1F)C1CC1 [Example 39, (2R)-4-[7-(4-{[cyclopropyl(methyl)amino]methyl}-3-fluorophenyl)-4-oxo-3,4-dihydroquinazolin-3-yl]-N-hydroxy-2-methanesulfonyl-2-methylbutanamide] | < 0.03 | 4 (≈ 7.74 µM) | 0.5 (≈ 0.968 µM)
2 | C[C@@](CCn1cnc2cc(-c3ccc(CN4CCOCC4)cc3F)ccc2c1=O)(C(=O)NO)S(C)(=O)=O [Example 37, (2R)-4-(7-{2-fluoro-4-[(morpholin-4-yl)methyl]phenyl}-4-oxo-3,4-dihydroquinazolin-3-yl)-N-hydroxy-2-methanesulfonyl-2-methylbutanamide] | 0.063 (≈ 0.118 µM) | 2 (≈ 3.76 µM) | 0.5 (≈ 0.939 µM)
3 | CON(C)Cc1ccc(-c2ccc3c(=O)n(CC[C@](C)(C(=O)NO)S(C)(=O)=O)cnc3c2)cc1 [Example 52, (2R)—N-hydroxy-2-methanesulfonyl-4-[7-(4-{[methoxy(methyl)amino]methyl}phenyl)-4-oxo-3,4-dihydroquinazolin-3-yl]-2-methylbutanamide] | 0.063 (≈ 0.129 µM) | 8 (≈ 16.4 µM) | 0.25 (≈ 0.512 µM)
4 | CC(C)OCCNCc1ccc(-c2ccc3c(=O)n(CC[C@](C)(C(=O)NO)S(C)(=O)=O)ccc3c2)c(F)c1.Cl [Example 73, (2R)-4-{6-[2-fluoro-4-({[2-(propan-2-yloxy)ethyl]amino}methyl)phenyl]-1-oxo-1,2-dihydroisoquinolin-2-yl}-N-hydroxy-2-methanesulfonyl-2-methylbutanamide] | 0.25 | 2 | 0.5
5 | CN(C)CC(=O)OCCc1ccc(-c2ccc3c(=O)n(CC[C@](C)(C(=O)NO)S(C)(=O)=O)ccc3c2)cc1 [Example 94, 2-(4-{2-[(3R)-3-(hydroxycarbamoyl)-3-methanesulfonyl-3-methylpropyl]-1-oxo-1,2-dihydroisoquinolin-6-yl}phenyl)ethyl 2-(dimethylamino)acetate] | 0.125 (≈ 0.23 µM) | 2 (≈ 3.68 µM) | 0.25 (≈ 0.46 µM)
6 | C[C@@](CCn1ccc2cc(-c3ccc(CCN4CCOCC4)cc3)ccc2c1=O)(C(=O)NO)S(C)(=O)=O [Example 80, (2R)—N-hydroxy-2-methanesulfonyl-2-methyl-4-(6-{4-[2-(morpholin-4-yl)ethyl]phenyl}-1-oxo-1,2-dihdroisoquinolin-2-yl)butanamide] | 0.063 (≈ 0.119 µM) | 1 (≈ 1.9 µM) | 0.25 (≈ 0.474 µM)
7 | CN(C)c1ncc(-c2ccc3c(=O)n(CC[C@](C)(C(=O)NO)S(C)(=O)=O)ccc3c2)cn1 [Example 63, (2R)-4-{6-[2-(dimethylamino)pyrimidin-5-yl]-1-oxo-1,2-dihydroisoquinolin-2-yl}-N-hydroxy-2-methanesulfonyl-2-methylbutanamide] | 0.125 (≈ 0.272 µM) | 4 (≈ 8.7 µM) | 1 (≈ 2.18 µM)
8 | COCCN(C)Cc1ccc(-c2cc3ncn(CC[C@](C)(C(=O)NO)S(C)(=O)=O)c(=O)c3cc2F)c(F)c1 [Example 23, (2R)-4-[6-fluoro-7-(2-fluoro-4-{[(2-methoxyethyl)(methyl)amino]methyl}phenyl)-4-oxo-3,4-dihydroquinazolin-3-yl]-N-hydroxy-2-methanesulfonyl-2-methylbutanamide] | 0.25 (≈ 0.452 µM) | 4 (≈ 7.24 µM) | 0.5 (≈ 0.905 µM)
9 | Cc1ccc(-c2ccc3c(=O)n(CC[C@](C)(C(=O)NO)S(C)(=O)=O)cnc3c2)cc1F [Example 9, (R)-4-(7-(3-fluoro-4-methylphenyl)-4-oxoquinazolin-3(4H)-yl)-N-hydroxy-2-methyl-2-(methylsulfonyl)butanamide] | ≤ 0.03 | 8 (≈ 17.9 µM) | 0.125 (≈ 0.279 µM)
10 | CN(C)c1ccc(-c2ccc3c(=O)n(CC[C@](C)(C(=O)NO)S(C)(=O)=O)ccc3c2)cc1 [Example 61, (2R)-4-{6-[4-(dimethylamino)phenyl]-1-oxo-1,2-dihydroisoquinolin-2-yl}-N-hydroxy-2-methanesulfonyl-2-methylbutanamide] | < 0.03 | > 32 | 1 (≈ 2.19 µM)
11 | COCc1ccc(-c2ccc3c(=O)n(CC[C@](C)(C(=O)NO)S(C)(=O)=O)cnc3c2)cc1 [Example 47, (2R)—N-hydroxy-2-methanesulfonyl-4-{7-[4-(methoxymethyl)phenyl]-4-oxo-3,4-dihydroquinazolin-3-yl}-2-methylbutanamide] | 0.063 (≈ 0.137 µM) | 0.5 (≈ 1.09 µM) | 0.125 (≈ 0.272 µM)
12 | COCCNCc1ccc(-c2ccc3c(=O)n(CC[C@](C)(C(=O)NO)S(C)(=O)=O)cc(F)c3c2)c(F)c1 [Example 88, (2R)-4-[4-fluoro-6-(2-fluoro-4-{[(2-methoxyethyl)amino]methyl}phenyl)-1-oxo-1,2-dihydroisoquinolin-2-yl]-N-hydroxy-2-methanesulfonyl-2-methylbutanamide] | 0.125 (≈ 0.233 µM) | 2 (≈ 3.72 µM) | 0.25 (≈ 0.465 µM)
13 | COCCN(C)Cc1ccc(-c2ccc3c(=O)n(CC[C@](C)(C(=O)NO)S(C)(=O)=O)cnc3c2)c(F)c1 [Example 36, (2R)-4-[7-(2-fluoro-4-{[(2-methoxyethyl)(methyl)amino]methyl}phenyl)-4-oxo-3,4-dihydroquinazolin-3-yl]-N-hydroxy-2-methanesulfonyl-2-methylbutanamide] | 0.125 (≈ 0.234 µM) | 1 (≈ 1.87 µM) | 1 (≈ 1.87 µM)
14 | COc1ccc(-c2cc(F)c3c(=O)n(CC[C@](C)(C(=O)NO)S(C)(=O)=O)cnc3c2)cc1 [Example 16, (2R)-4-[5-fluoro-7-(4-methoxyphenyl)-4-oxo-3,4-dihydroquinazolin-3-yl]-N-hydroxy-2-methanesulfonyl-2-methylbutanamide] | 0.25 (≈ 0.539 µM) | 8 (≈ 17.3 µM) | 1 (≈ 2.16 µM)
15 | C[C@@](CCn1cnc2cc(-c3ccc4c(c3)COC4)c(F)cc2c1=O)(C(=O)NO)S(C)(=O)=O [Example 32, (2R)-4-[7-(1,3-dihydro-2-benzofuran-5-yl)-6-fluoro-4-oxo-3,4-dihydroquinazolin-3-yl]-N-hydroxy-2-methanesulfonyl-2-methylbutanamide] | 0.125 (≈ 0.263 µM) | 4 (≈ 8.41 µM) | 0.5 (≈ 1.05 µM)
16 | CC(=O)OCCc1ccc(-c2cc3ncn(CC[C@](C)(C(=O)NO)S(C)(=O)=O)c(=O)c3cc2F)cc1 [Example 34, 2-(4-{6-fluoro-3-[(3R)-3-(hydroxycarbamoyl)-3-methanesulfonyl-3-methylpropyl]-4-oxo-3,4-dihydroquinazolin-7-yl}phenyl)ethyl acetate] | < 0.03 | 4 | 0.25
17 | CN(C)c1ccc(-c2ccc3c(=O)n(CC[C@](C)(C(=O)NO)S(C)(=O)=O)ccc3c2)cn1 [Example 62, (2R)-4-{6-[6-(dimethylamino)pyridin-3-yl]-1-oxo-1,2-dihydroisoquinolin-2-yl}-N-hydroxy-2-methanesulfonyl-2-methylbutanamide] | 0.125 (≈ 0.273 µM) | 8 (≈ 17.4 µM) | 0.5 (≈ 1.09 µM)
18 | COCCN(C)Cc1ccc(-c2ccc3c(=O)n(CC[C@](C)(C(=O)NO)S(C)(=O)=O)cnc3c2)c(F)c1F [Example 38, (2R)-4-[7-(2,3-difluoro-4-{[(2-methoxyethyl)(methyl)amino]methyl}phenyl)-4-oxo-3,4-dihydroquinazolin-3-yl]-N-hydroxy-2-methanesulfonyl-2-methylbutanamide] | 0.125 (≈ 0.226 µM) | 4 (≈ 7.24 µM) | 0.5 (≈ 0.905 µM)
19 | C[C@@](CCn1cnc2cc(-c3ccc(CN4CC(F)(F)C4)cc3F)ccc2c1=O)(C(=O)NO)S(C)(=O)=O [Example 40, (2R)-4-(7-{4-[(3,3-difluoroazetidin-1-yl)methyl]-2-fluorophenyl}-4-oxo-3,4-dihydroquinazolin-3-yl)-N-hydroxy-2-methanesulfonyl-2-methylbutanamide] | 0.5 (≈ 0.928 µM) | 4 (≈ 7.43 µM) | 0.5 (≈ 0.928 µM)
20 | CN(CCOc1ccc(-c2ccc3c(=O)n(CC[C@](C)(C(=O)NO)S(C)(=O)=O)ccc3c2)cn1)C1CC1.O=C(O)C(F)(F)F [Example 82, (2R)-4-[6-(6-{2-[cyclopropyl(methyl)amino]ethoxy}pyridin-3-yl)-1-oxo-1,2-dihydroisoquinolin-2-yl]-N-hydroxy-2-methanesulfonyl-2-methylbutanamide] | 0.25 | 4 | 0.25
21 | Cc1ccc(-c2ccc3c(=O)n(CC[C@](C)(C(=O)NO)S(C)(=O)=O)nnc3c2)cc1 [Example 18, (2R)—N-hydroxy-2-methanesulfonyl-2-methyl-4-[7-(4-methylphenyl)-4-oxo-3,4-dihydro-1,2,3-benzotriazin-3-yl]butanamide] | 0.5 (≈ 1.16 µM) | 16 (≈ 37.2 µM) | 1 (≈ 2.32 µM)
22 | C[C@@](CCn1cnc2cc(-c3ccccc3)c(F)cc2c1=O)(C(=O)NO)S(C)(=O)=O [Example 31, (2R)-4-(6-fluoro-4-oxo-7-phenyl-3,4-dihydroquinazolin-3-yl)-N-hydroxy-2-methanesulfonyl-2-methylbutanamide] | 0.063 (≈ 0.145 µM) | 2 (≈ 4.61 µM) | 0.25 (≈ 0.577 µM)
23 | COc1ccc(-c2ccc3c(=O)n(CC[C@](C)(C(=O)NO)S(C)(=O)=O)ccc3c2)c(F)c1 [Example 55, (2R)-4-[6-(2-fluoro-4-methoxyphenyl)-1-oxo-1,2-dihydroisoquinolin-2-yl]-N-hydroxy-2-methanesulfonyl-2-methylbutanamide] | < 0.03 | 1 (≈ 2.16 µM) | 0.063 (≈ 0.136 µM)
24 | CN(C)c1ccc(-c2ccc3c(=O)n(CC[C@](C)(C(=O)NO)S(C)(=O)=O)cc(F)c3c2)cn1 [Example 90, (2R)-4-{6-[6-(dimethylamino)pyridin-3-yl]-4-fluoro-1-oxo-1,2-dihydroisoquinolin-2-yl}-N-hydroxy-2-methanesulfonyl-2-methylbutanamide] | 0.063 (≈ 0.132 µM) | 32 (≈ 67.2 µM) | 1 (≈ 2.1 µM)

Source: patent US10781184B2, “Substituted benzazinones as antibacterial compounds” (GlaxoSmithKline Intellectual Property Development Limited, priority 2015, dated 2020)
